The values that follow come from the NIST ThermoML archive (doi:10.1016/j.jct.2012.01.019).

± gives the expanded uncertainty stated by the source.

A short description of the data set: activity coefficient (dimensionless); of the first substance listed, at infinite dilution; xn = mol fraction of the nth substance listed. The settings on record: 101 kPa, Liquid, Chromatography, x1 = 0.

On to `CCCC=O` [butanal] + COCC[N+]1(C)CCCCC1.O=S(=O)([N-]S(=O)(=O)C(F)(F)F)C(F)(F)F, for which the activity coefficient (318.15 K) came out at 0.779 ± 0.051; the activity coefficient (328.15 K) was 0.791 ± 0.051; the activity coefficient (338.15 K) came out at 0.805 ± 0.052; the activity coefficient (348.15 K) was 0.817 ± 0.053; the activity coefficient (358.15 K) was determined as 0.828 ± 0.053; the activity coefficient (368.15 K) was 0.84 ± 0.054.
Turning to `C1CCCCCC1` [cycloheptane] + COCC[N+]1(C)CCCCC1.O=S(=O)([N-]S(=O)(=O)C(F)(F)F)C(F)(F)F, the activity coefficient (318.15 K) turned out to be 13.3 ± 0.6; the activity coefficient (328.15 K) came to 12.5 ± 0.6; the activity coefficient (338.15 K) came out at 11.7 ± 0.5; the activity coefficient (348.15 K) was 10.9 ± 0.5; the activity coefficient (358.15 K) amounted to 10.2 ± 0.5; the activity coefficient (368.15 K) came to 9.64 ± 0.44.
For `C1CCCCC1` [cyclohexane] + COCC[N+]1(C)CCCCC1.O=S(=O)([N-]S(=O)(=O)C(F)(F)F)C(F)(F)F, the activity coefficient by setting is: (318.15 K) 9.72 ± 0.45; (328.15 K) 9.23 ± 0.42; (338.15 K) 8.71 ± 0.4; (348.15 K) 8.24 ± 0.38; (358.15 K) 7.81 ± 0.36; (368.15 K) 7.48 ± 0.34.
Consider `C1=CCCCC1` [cyclohexene] + COCC[N+]1(C)CCCCC1.O=S(=O)([N-]S(=O)(=O)C(F)(F)F)C(F)(F)F, for which the activity coefficient is, setting by setting: (318.15 K) 5.41 ± 0.37; (328.15 K) 5.21 ± 0.36; (338.15 K) 5 ± 0.34; (348.15 K) 4.83 ± 0.33; (358.15 K) 4.67 ± 0.32; (368.15 K) 4.53 ± 0.31.
On to `C1CCCCCCC1` [cyclooctane] + COCC[N+]1(C)CCCCC1.O=S(=O)([N-]S(=O)(=O)C(F)(F)F)C(F)(F)F, for which the activity coefficient reads like this: (318.15 K) 18 ± 1.2; (328.15 K) 16.6 ± 1.1; (338.15 K) 15.4 ± 1.1; (348.15 K) 14.3 ± 1; (358.15 K) 13.2 ± 0.9; (368.15 K) 12.4 ± 0.8.
In the case of `C1CCCC1` [cyclopentane] + COCC[N+]1(C)CCCCC1.O=S(=O)([N-]S(=O)(=O)C(F)(F)F)C(F)(F)F, the activity coefficient (318.15 K) is 6.73 ± 0.31; the activity coefficient (328.15 K) came out at 6.42 ± 0.29; the activity coefficient (338.15 K) turned out to be 6.13 ± 0.28; the activity coefficient (348.15 K) is 5.86 ± 0.27; the activity coefficient (358.15 K) was 5.63 ± 0.26; the activity coefficient (368.15 K) was found to be 5.45 ± 0.25.
For the molecule `CCCCCCCCCC` [decane] + COCC[N+]1(C)CCCCC1.O=S(=O)([N-]S(=O)(=O)C(F)(F)F)C(F)(F)F, the activity coefficient is, setting by setting: (318.15 K) 73.9 ± 3.5; (328.15 K) 66.5 ± 3.1; (338.15 K) 59.5 ± 2.8; (348.15 K) 53.7 ± 2.5; (358.15 K) 48.8 ± 2.3; (368.15 K) 45 ± 2.1.
As to `CCOCC` [diethyl ether] + COCC[N+]1(C)CCCCC1.O=S(=O)([N-]S(=O)(=O)C(F)(F)F)C(F)(F)F, the activity coefficient is, setting by setting: (318.15 K) 2.6 ± 0.18; (328.15 K) 2.59 ± 0.18; (338.15 K) 2.58 ± 0.18; (348.15 K) 2.58 ± 0.18; (358.15 K) 2.57 ± 0.17; (368.15 K) 2.56 ± 0.17.
For the molecule `CC(C)OC(C)C` [diisopropyl ether] + COCC[N+]1(C)CCCCC1.O=S(=O)([N-]S(=O)(=O)C(F)(F)F)C(F)(F)F, the activity coefficient runs as follows: (318.15 K) 6.13 ± 0.42; (328.15 K) 6.03 ± 0.41; (338.15 K) 5.94 ± 0.4; (348.15 K) 5.84 ± 0.4; (358.15 K) 5.76 ± 0.39; (368.15 K) 5.69 ± 0.39.
Consider `CCCOCCC` [dipropyl ether] + COCC[N+]1(C)CCCCC1.O=S(=O)([N-]S(=O)(=O)C(F)(F)F)C(F)(F)F, for which the activity coefficient runs as follows: (318.15 K) 6.45 ± 0.44; (328.15 K) 6.28 ± 0.43; (338.15 K) 6.13 ± 0.42; (348.15 K) 5.98 ± 0.41; (358.15 K) 5.86 ± 0.4; (368.15 K) 5.75 ± 0.39.
`CCO` [ethanol] + COCC[N+]1(C)CCCCC1.O=S(=O)([N-]S(=O)(=O)C(F)(F)F)C(F)(F)F: the activity coefficient came to 1.73 ± 0.12 (318.15 K); 1.58 ± 0.1 (328.15 K); 1.45 ± 0.1 (338.15 K); 1.33 ± 0.09 (348.15 K); 1.24 ± 0.08 (358.15 K); 1.16 ± 0.07 (368.15 K).
Regarding `CCOC(C)=O` [ethyl acetate] + COCC[N+]1(C)CCCCC1.O=S(=O)([N-]S(=O)(=O)C(F)(F)F)C(F)(F)F, the activity coefficient is 0.916 ± 0.058 (318.15 K); 0.932 ± 0.059 (328.15 K); 0.948 ± 0.06 (338.15 K); 0.963 ± 0.061 (348.15 K); 0.975 ± 0.061 (358.15 K); 0.989 ± 0.062 (368.15 K).
Turning to `CCc1ccccc1` [ethylbenzene] + COCC[N+]1(C)CCCCC1.O=S(=O)([N-]S(=O)(=O)C(F)(F)F)C(F)(F)F, the activity coefficient runs as follows: (318.15 K) 1.92 ± 0.13; (328.15 K) 1.93 ± 0.13; (338.15 K) 1.93 ± 0.13; (348.15 K) 1.94 ± 0.13; (358.15 K) 1.94 ± 0.13; (368.15 K) 1.95 ± 0.13.
`CCCCCCC` [heptane] + COCC[N+]1(C)CCCCC1.O=S(=O)([N-]S(=O)(=O)C(F)(F)F)C(F)(F)F: the activity coefficient was determined as 24.5 ± 1.1 (318.15 K); 22.9 ± 1.1 (328.15 K); 21.2 ± 1 (338.15 K); 19.8 ± 0.9 (348.15 K); 18.4 ± 0.9 (358.15 K); 17.5 ± 0.8 (368.15 K).
On to `C=CCCCC` [hex-1-ene] + COCC[N+]1(C)CCCCC1.O=S(=O)([N-]S(=O)(=O)C(F)(F)F)C(F)(F)F, for which the activity coefficient was found to be 8.78 ± 0.6 (318.15 K); 8.38 ± 0.57 (328.15 K); 8.05 ± 0.55 (338.15 K); 7.69 ± 0.52 (348.15 K); 7.45 ± 0.51 (358.15 K); 7.22 ± 0.49 (368.15 K).
On to `CCCCCC` [hexane] + COCC[N+]1(C)CCCCC1.O=S(=O)([N-]S(=O)(=O)C(F)(F)F)C(F)(F)F, for which the activity coefficient came to 16.9 ± 0.8 (318.15 K); 16 ± 0.7 (328.15 K); 15.1 ± 0.7 (338.15 K); 14.2 ± 0.7 (348.15 K); 13.5 ± 0.6 (358.15 K); 13 ± 0.6 (368.15 K).
In the case of `CO` [methanol] + COCC[N+]1(C)CCCCC1.O=S(=O)([N-]S(=O)(=O)C(F)(F)F)C(F)(F)F, the activity coefficient by setting is: (318.15 K) 1.37 ± 0.09; (328.15 K) 1.26 ± 0.08; (338.15 K) 1.17 ± 0.07; (348.15 K) 1.08 ± 0.07; (358.15 K) 1 ± 0.06; (368.15 K) 0.942 ± 0.059.
Regarding `CCCC(=O)OC` [methyl butanoate] + COCC[N+]1(C)CCCCC1.O=S(=O)([N-]S(=O)(=O)C(F)(F)F)C(F)(F)F, the activity coefficient by setting is: (318.15 K) 1.22 ± 0.08; (328.15 K) 1.23 ± 0.08; (338.15 K) 1.24 ± 0.08; (348.15 K) 1.25 ± 0.08; (358.15 K) 1.26 ± 0.08; (368.15 K) 1.27 ± 0.08.
For the molecule `COC(C)=O` [methyl ethanoate] + COCC[N+]1(C)CCCCC1.O=S(=O)([N-]S(=O)(=O)C(F)(F)F)C(F)(F)F, the activity coefficient runs as follows: (318.15 K) 0.7 ± 0.047; (328.15 K) 0.714 ± 0.048; (338.15 K) 0.726 ± 0.048; (348.15 K) 0.74 ± 0.049; (358.15 K) 0.751 ± 0.049; (368.15 K) 0.763 ± 0.05.
`CCC(=O)OC` [methyl propanoate] + COCC[N+]1(C)CCCCC1.O=S(=O)([N-]S(=O)(=O)C(F)(F)F)C(F)(F)F: the activity coefficient came out at 0.888 ± 0.057 (318.15 K); 0.904 ± 0.057 (328.15 K); 0.92 ± 0.058 (338.15 K); 0.936 ± 0.059 (348.15 K); 0.95 ± 0.06 (358.15 K); 0.966 ± 0.061 (368.15 K).
As for `CC1CCCCC1` [methylcyclohexane] + COCC[N+]1(C)CCCCC1.O=S(=O)([N-]S(=O)(=O)C(F)(F)F)C(F)(F)F, the activity coefficient (318.15 K) worked out at 13.5 ± 0.6; the activity coefficient (328.15 K) was found to be 12.7 ± 0.6; the activity coefficient (338.15 K) came out at 12 ± 0.6; the activity coefficient (348.15 K) worked out at 11.2 ± 0.5; the activity coefficient (358.15 K) was 10.6 ± 0.5; the activity coefficient (368.15 K) was 10.2 ± 0.5.
Take `CCCCCCCCC` [nonane] + COCC[N+]1(C)CCCCC1.O=S(=O)([N-]S(=O)(=O)C(F)(F)F)C(F)(F)F: the activity coefficient is 50.8 ± 2.4 (318.15 K); 46.3 ± 2.2 (328.15 K); 42 ± 2 (338.15 K); 38.2 ± 1.8 (348.15 K); 35.1 ± 1.6 (358.15 K); 32.4 ± 1.5 (368.15 K).
For the molecule `C=CCCCCCC` [oct-1-ene] + COCC[N+]1(C)CCCCC1.O=S(=O)([N-]S(=O)(=O)C(F)(F)F)C(F)(F)F, the activity coefficient reads like this: (318.15 K) 18.1 ± 1.2; (328.15 K) 17 ± 1.2; (338.15 K) 16.1 ± 1.1; (348.15 K) 15.1 ± 1; (358.15 K) 14.4 ± 1; (368.15 K) 13.8 ± 0.9.
On to `CCCCCCCC` [octane] + COCC[N+]1(C)CCCCC1.O=S(=O)([N-]S(=O)(=O)C(F)(F)F)C(F)(F)F, for which the activity coefficient (318.15 K) is 35.4 ± 1.6; the activity coefficient (328.15 K) stood at 32.6 ± 1.5; the activity coefficient (338.15 K) is 30 ± 1.4; the activity coefficient (348.15 K) turned out to be 27.6 ± 1.3; the activity coefficient (358.15 K) is 25.6 ± 1.2; the activity coefficient (368.15 K) turned out to be 23.8 ± 1.1.
With `CCCC(C)=O` [pentan-2-one] + COCC[N+]1(C)CCCCC1.O=S(=O)([N-]S(=O)(=O)C(F)(F)F)C(F)(F)F, the activity coefficient runs as follows: (318.15 K) 0.786 ± 0.051; (328.15 K) 0.801 ± 0.052; (338.15 K) 0.813 ± 0.053; (348.15 K) 0.825 ± 0.053; (358.15 K) 0.837 ± 0.054; (368.15 K) 0.849 ± 0.054.
